Measurements taken from PubChem BioAssay AID2060618 (Molecular Pharmacology Branch, DTP, NCI, 2025).
Where “and” joins values, the source holds several entries; their conditions need not be identical. Identical values can stand only once.

System: 454973-116-R2-J3-PDC spheroids, percent test/control viability
Test: Anticancer human tumor 454973-116-R2-J3-PDC patient-derived pancreatic carcinoma cell line growth inhibition [CLK]
Settings: spheroids with HUVEC and MSC; for viability, T/C: stronger effect = lower value
From the text: A high-throughput screen of multi-cell type tumor spheroids was designed to identify active combinations of […] and targeted small molecules. Complex spheroids include a stromal component modeled by human endothelial cells (HUVEC) and fibroblasts modeled by human mesenchymal stem cells (MSCs). The concentration ranges selected for each drug and investigational agent were based upon clinically achievable concentrations if the clinical Cmax of the agent was known.
Compounds. The drugs and investigational agents: cirtuvivint (SM08502; NSC835563), CC-671 (NSC850746), vemurafenib (NSC761431), tapotoclax (NSC804041), sotorasib (NSC818433), adagrasib (NSC831453), MRTX-1133 (NSC836407), BAY2416964 (NSC825713), copanlisib (NSC816437), inavolisib (NSC800729), abemaciclib (NSC768073), osimertinib (NSC779217), entinostat (NSC756642), eltanexor (KPT-8602, NSC794443), venetoclax (NSC766270), ceralasertib (NSC777638), bortezomib (NSC756655), olaparib (NSC753686), talazoparib (NSC767125), alisertib (NSC759677), peposertib (NSC802822), gemcitabine (NSC613327), 5-fluorouracil (NSC19893), SN-38 (NSC673596), oxaliplatin (NSC266046), paclitaxel (NSC125973), and doxorubicin (NSC123127), were obtained from the National Cancer Institute (NCI) Developmental Therapeutics Program Chemical Repository. The FDA-approved anticancer drug set is available from the Developmental Therapeutics Program at https://dtp.cancer.gov/organization/dscb/obtaining/available plates.htm. […] The stock solutions were prepared in dimethyl sulfoxide (DMSO, Sigma-Aldrich, St. Louis, MO, cat. D2650), except for the platinum complexes which were prepared in saline (Quality Biological, Gaithersburg, MD, cat. 114-055-101), at 800-fold the tested concentration and stored at -70 degrees C prior to their use. All drugs and investigational agents were tested over a range starting from a high concentration at or near the clinical Cmax and decreasing in half-log increments. If the clinical Cmax for an agent had not been determined, the highest concentration tested was 10 microM.
Cell Culture. All cells were maintained in an incubator at 37 degrees C and 5% CO2 with 95% humidity. The PDC lines were cultured according to standard operating procedures established by the NCI PDMR. Briefly, all PDCs were thawed and cultured in Matrigel-coated flasks prepared with a working solution of 1X Ham's F-12 nutrient mix, without supplementation (Invitrogen, Waltham, MA, cat. 11765054), 100 U/mL penicillin-streptomycin (Invitrogen, cat. 15140122), and 2.5% Matrigel (Corning Inc., Corning, NY, cat. 354248) for the first three passages. The 947758-054-R-J2-PDC line was cultured in 6B/Colon 1A media, which includes advanced DMEM/F-12 (Thermo Fisher Scientific, cat. 12634028), 10 mM HEPES (Thermo Fisher Scientific, cat. 15630080), 1X GlutaMAX supplement (Thermo Fisher Scientific, cat. 35050061), 0.1 mg/mL primocin (InvivoGen, cat. ant-pm-2), 10% defined fetal bovine serum, heat inactivated (HyClone Laboratories Inc., cat. SH30070.03HI), 1.25 mM N-Acetyl-L-cysteine (Sigma-Aldrich, cat. A9165), 10 mM nicotinamide (Sigma-Aldrich, cat. N0636), 1X B-27 supplement (Thermo Fisher Scientific, cat. 17504044), 1X N-2 supplement (Thermo Fisher Scientific, cat. 17502048), and 10 microM Y-27632 dihydrochloride (Tocris Bioscience, cat. 1254). The 876862-298-R-J1-PDC was cultured in 6E media, which includes all 6B/Colon 1A media components plus 50% L-WRN conditioned media (ATCC, cat. CRL-3276), 50 ng/mL recombinant human EGF recombinant protein (hEGF; Thermo Fisher Scientific, cat. PHG0311), 10 ng/mL recombinant human fibroblast growth factor 10 (hGFG-10; PeproTech, cat. 100-26), 1 ng/mL recombinant human fibroblast growth factor 2 (hFGF-2; PeproTech, cat. 100-18B), and 1 µM prostaglandin E2 (PGE2; Tocris, cat. 2296). The 227483-062-R1-J1-PDC line was cultured in Panc media, containing all 6E components except hFGF-2, with the addition of 500 nM SB-431542 (Selleckchem, cat. S1067) and 10 nM gastrin (Tocris, cat. 3006). […]
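Note: spheroids exposed to compounds for 7 days before readout.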

With `CC(=O)O[C@H]1C(=O)[C@@]2(C)[C@H]([C@H](OC(=O)c3ccccc3)[C@]3(O)C[C@H](OC(=O)[C@H](O)[C@@H](NC(=O)c4ccccc4)c4ccccc4)C(C)=C1C3(C)C)[C@]1(OC(C)=O)CO[C@@H]1C[C@@H]2O` the viability, T/C (compound 0.0316 µM) was 5.98% and 7.51%, the viability, T/C (compound 0.1 µM) was 6.42% and 5.84% and the viability, T/C (compound 0.316 µM) was 4.95% and 6.85%. For the same compound, the viability, T/C (compound 1 µM) was 5.57% and 6.35%, the viability, T/C (compound 3.16 µM) was 7.38% and 11.4% and the viability, T/C (compound 10 µM) was 16% and 15.4%. It also gave an IC50 (curve of compound) of under 31.6 nM.
With `COc1ccc([C@@H](O)c2cc(-c3ncnc4cc(N5CCOCC5)ccc34)c(F)cc2Cl)nn1` the viability, T/C (compound 0.0316 µM) was 105% and 114%, the viability, T/C (compound 0.1 µM) was 108% and 102% and the viability, T/C (compound 0.316 µM) was 95.4% and 102%. The viability, T/C (compound 1 µM) was 92% and 89.2%, the viability, T/C (compound 3.16 µM) was 82.7% and 77.8% and the viability, T/C (compound 10 µM) was 54.3% and 51%. It also gave an IC50 (curve of compound) of over 10000 nM.
In the case of `COc1cccc2c1C(=O)c1c(O)c3c(c(O)c1C2=O)CC(O)(C(=O)CO)CC3OC1CC(N)C(O)C(C)O1` (configuration not stated), the viability, T/C (compound 0.0316 µM) is reported as 58.7% and 49.7%, the viability, T/C (compound 0.1 µM) is reported as 23% and 19.8% and the viability, T/C (compound 0.316 µM) is reported as 21.2% and 19.8%. For the same compound, the viability, T/C (compound 1 µM) was 6.76% and 3.88%, the viability, T/C (compound 3.16 µM) was 0.39% and 1.8% and the viability, T/C (compound 10 µM) was 2.07% and 3.53%. The IC50 (curve of compound) was 42.3 nM and < 31.6 nM.
With `Nc1ccn(C2OC(CO)C(O)C2(F)F)c(=O)n1` (configuration not stated) the viability, T/C (compound 0.0316 µM) was 11% and 7.61%, the viability, T/C (compound 0.1 µM) was 8.58% and 9.53% and the viability, T/C (compound 0.316 µM) was 8.12% and 7.99%. For the same compound, the viability, T/C (compound 1 µM) was 10.4% and 8.26%, the viability, T/C (compound 3.16 µM) was 9.96% and 7.45% and the viability, T/C (compound 10 µM) was 9.46% and 9.19%. It also gave an IC50 (curve of compound) of under 31.6 nM.
For `O=c1[nH]cc(F)c(=O)[nH]1`, the viability, T/C (compound 0.0316 µM) was 115% and 108%, the viability, T/C (compound 0.1 µM) was 98.1% and 101% and the viability, T/C (compound 0.316 µM) was 95.8% and 103%. The viability, T/C (compound 1 µM) was 64.2% and 43.4%, the viability, T/C (compound 3.16 µM) was 30.3% and 31.5% and the viability, T/C (compound 10 µM) was 35.5% and 36.6%. The IC50 (curve of compound) was 1700 nM and 881 nM.
Work on `CCCS(=O)(=O)Nc1ccc(F)c(C(=O)c2c[nH]c3ncc(-c4ccc(Cl)cc4)cc23)c1F` + CN1CCN(c2cc(C(=O)Nc3cc4cc(-c5cnn(C)c5)ccc4cn3)ccn2)CC1 yielded an IC50 (curve of first compound, second compound 0.0316 µM) of 7050 nM, an IC50 (curve of first compound, second compound 0.1 µM) of 5490 nM and an IC50 (curve of first compound, second compound 0.316 µM) of under 31.6 nM. It also gave an IC50 (curve of first compound, second compound 1 µM) of under 31.6 nM, an IC50 (curve of first compound, second compound 3.16 µM) of under 31.6 nM and an IC50 (curve of first compound, second compound 10 µM) of under 31.6 nM. It also gave a viability, T/C (second compound 0.0316 µM, first compound 0.0316 µM) of 79.2%, a viability, T/C (second compound 0.0316 µM, first compound 0.1 µM) of 101% and a viability, T/C (second compound 0.0316 µM, first compound 0.316 µM) of 95.7%. For the same compound, the viability, T/C (second compound 0.0316 µM, first compound 1 µM) was 105%, the viability, T/C (second compound 0.0316 µM, first compound 3.16 µM) was 107% and the viability, T/C (second compound 0.0316 µM, first compound 10 µM) was 29.3%. The viability, T/C (second compound 0.1 µM, first compound 0.0316 µM) was 73.9%, the viability, T/C (second compound 0.1 µM, first compound 0.1 µM) was 80.6% and the viability, T/C (second compound 0.1 µM, first compound 0.316 µM) was 100%. For the same compound, the viability, T/C (second compound 0.1 µM, first compound 1 µM) was 96.7%, the viability, T/C (second compound 0.1 µM, first compound 3.16 µM) was 83.7% and the viability, T/C (second compound 0.1 µM, first compound 10 µM) was 13.2%. It also gave a viability, T/C (second compound 0.316 µM, first compound 0.0316 µM) of 1.36%, a viability, T/C (second compound 0.316 µM, first compound 0.1 µM) of 1.57% and a viability, T/C (second compound 0.316 µM, first compound 0.316 µM) of 1.57%. For the same compound, the viability, T/C (second compound 0.316 µM, first compound 1 µM) was 2.69%, the viability, T/C (second compound 0.316 µM, first compound 3.16 µM) was 2.52% and the viability, T/C (second compound 0.316 µM, first compound 10 µM) was 0.54%. For the same compound, the viability, T/C (second compound 1 µM, first compound 0.0316 µM) was 0.13%, the viability, T/C (second compound 1 µM, first compound 0.1 µM) was 0.17% and the viability, T/C (second compound 1 µM, first compound 0.316 µM) was 0.16%. The viability, T/C (second compound 1 µM, first compound 1 µM) was 0.11%, the viability, T/C (second compound 1 µM, first compound 3.16 µM) was 0.17% and the viability, T/C (second compound 1 µM, first compound 10 µM) was 0.07%. It also gave a viability, T/C (second compound 3.16 µM, first compound 0.0316 µM) of 0.14%, a viability, T/C (second compound 3.16 µM, first compound 0.1 µM) of 0.16% and a viability, T/C (second compound 3.16 µM, first compound 0.316 µM) of 0.2%. The viability, T/C (second compound 3.16 µM, first compound 1 µM) was 0.19%, the viability, T/C (second compound 3.16 µM, first compound 3.16 µM) was 0.74% and the viability, T/C (second compound 3.16 µM, first compound 10 µM) was 0.26%. The viability, T/C (second compound 10 µM, first compound 0.0316 µM) was 0.34%, the viability, T/C (second compound 10 µM, first compound 0.1 µM) was 0.17% and the viability, T/C (second compound 10 µM, first compound 0.316 µM) was 0.54%. For the same compound, the viability, T/C (second compound 10 µM, first compound 1 µM) was 0.22%, the viability, T/C (second compound 10 µM, first compound 3.16 µM) was 0.8% and the viability, T/C (second compound 10 µM, first compound 10 µM) was 2.02%.
